pIC50: −log10 of the molar value.
target: at least one kinase selected from Aurora-A, Aurora-B, EGF-R, ERBB2, PDGFR, IGF1-R, VEGF-R2, VEGF-R3, EPHB4, Tie2, and SRC; assay: 33PanQinase Activity Assay (protein kinase assay); type: biochemical, human; conditions: on at least one kinase of the listed panel, or on at least two kinases from at least two different molecular mechanisms of tumor progression; 1 µM [γ-33P]-ATP, 30°C, 80 minutes
Protocol: The effect of the benzazole derivatives was tested on recombinant, human protein kinases. All protein kinases were expressed in Sf9 insect cells as human recombinant GST-fusion proteins or as His-tagged proteins by means of the baculovirus expression system. Protein kinases were purified by affinity chromatography using either GSH-agarose or Ni-NTH-agarose. The purity and identity of each was checked by SDS-PAGE/silver staining and by western blot analysis with specific antibodies.
A proprietary protein kinase assay (^33PanQinase® Activity Assay) was used for measuring the kinase activity. All kinase assays were performed in 96-well FlashPlates™ in a 50 µl reaction volume. The assay for all enzymes contained 60 mM HEPES-NaOH, pH 7.5, 3 mM MgCl2, 3 mM MnCl2, 3 µM Na-orthovanadate, 1.2 mM DTT, 50 µg/ml PEG20000 and 1 µM [γ-^33P]-ATP (approx. 5x10^5 cpm per well). The reaction cocktails were incubated at 30°C for 80 minutes. The reaction was stopped with 50 µl of 2% (v/v) H3PO4, plates were aspirated and washed two times with 200 µl of 0.9% (w/v) NaCl. Incorporation of ^33Pi was determined with a microplate scintillation counter. All assays were performed with a BeckmanCoulter/ Sagian robotic system.

| SMILES | pIC50 |
| --- | --- |
| COc1cc2ncnc(Nc3nc4ccc(NC(=O)Nc5ccc(Cl)c(C(F)(F)F)c5)cc4s3)c2cc1OC [Example 18, 1-(4-Chloro-3-trifluoromethylphenyl)-3-[2-(6,7-dimethoxyquinazolin-4-yl-amino)benzothiazol-6-yl]urea] | > 6.30 |
| COc1cc2ncnc(Nc3nc4ccc(NC(=O)Nc5ccccc5)cc4s3)c2cc1OC [Example 12, 1-[2-(6,7-Dimethoxyquinazolin-4-ylamino)benzothiazol-6-yl]-3-phenylurea] | > 6.30 |
| COc1cc2ncnc(Nc3nc4ccc(NC(=O)Nc5cccc(C(F)(F)F)c5)cc4s3)c2cc1OC [Example 15, 1-[2-(6,7-Dimethoxyquinazolin-4-ylamino)benzothiazol-6-yl]-3-(3-trifluoromethylphenyl)urea] | > 6.30 |
| COc1cc2c(Nc3nc4ccc(NC(=O)Nc5ccc(Cl)c(C(F)(F)F)c5)cc4s3)ncnc2cc1OCCCN1CCN(C)CC1 [Example 19, 1-(4-Chloro-3-trifluoromethylphenyl)-3-(2-{6-methoxy-7-[3-(4-methylpiperazin-1-yl)-propoxy]quinazolin-4-ylamino}benzothiazol-6-yl)urea] | > 6.30 |
| COc1cc2ncnc(Nc3nc4ccc(NC(=O)c5cccc(OC(F)(F)F)c5)cc4s3)c2cc1OC [Example 11, N-[2-(6,7-Dimethoxyquinazolin-4-ylamino)-benzothiazol-6-yl]-3-trifluoromethoxybenzamide] | > 6.30 |
| COc1cc2ncnc(Nc3nc4ccc(NC(=O)Nc5cccc(F)c5)cc4s3)c2cc1OC [Example 14, 1-[2-(6,7-Dimethoxyquinazolin-4-ylamino)benzothiazol-6-yl]-3-(3-fluorophenyl)urea] | > 6.30 |
| COc1cc2ncnc(Nc3nc4cc(NC(=O)Nc5ccc(Cl)c(C(F)(F)F)c5)ccc4s3)c2cc1OC [Example 20, 1-(4-Chloro-3-trifluoromethylphenyl)-3-[2-(6,7-dimethoxyquinazolin-4-yl-amino)benzothiazol-5-yl]urea] | > 6.30 |
